Calls of active or inactive are those of the source. No rule for the calls is given here.
Test: blockers of mitochondrial fusion, WT vs mutant – cell-based, chemical genetic, wild-type and mutant, confirmation (AID 1361)
Conditions: Cell-based mitochondrial fusion phenotype, imaging
[1] = mutant cells, measured here: mutant cell line IC50

| SMILES | IC50 (WT cells) | IC50 [1] [µM] |
| --- | --- | --- |
| CC(C)Cc1nc(N2CCN(C(=O)c3ccccc3)CC2)c(C#N)c2c1CCC2 | 16.3 µM | > 25 |
| CC(C)(C)Nc1nc(SCc2ccccc2)nc(N2CCOCC2)n1 | 17.3 µM | > 25 |
| O=C(c1ccc2c(c1)OCO2)N(Cc1cccs1)C1(C(=O)NC2CCCCC2)CCCCC1 | > 25 µM (inactive) | > 25 |
| CC1CCc2c(sc(NC(=O)COC(=O)c3ccc(O)cc3)c2C#N)C1 (stereo not drawn) | > 25 µM (inactive) | > 25 |
| CCCC(=O)NC(=S)Nc1cccc(Cl)c1N1CCCCC1 | 22.5 µM | > 25 |
| CCOC(=O)C1CCN(CC(=O)Nc2cc(C)nn2-c2nc3ccccc3s2)CC1 | > 25 µM (inactive) | > 25 |
| CCCCOc1c(Br)cc(/C=N/O)cc1OCC | > 25 µM (inactive) | > 25 |
| CC(C)N(Cc1nc(-c2ccc(Cl)cc2)no1)C(=O)CCC1CCCC1 | 13.7 µM | > 25 |
| O=C(c1c(F)c(F)c(F)c(F)c1F)N(Cc1ccccc1)Cc1ccccc1 | 15 µM | 22.4 |
| CC1=CCC[C@@H]2[C@@](C)(CC/C(C)=C/C(=O)O)[C@H](C)CC[C@@]12C | 21.7 µM | > 25 |
| COC(=O)CNC(=O)CNC(=O)c1nn(-c2ccc(OC)c(Cl)c2)c(=O)c2ccccc12 | > 25 µM (inactive) | > 25 |
| Nn1c(SCC(=O)Nc2ccc3c(c2)OCO3)nnc1-c1ccncc1 | > 25 µM (inactive) | > 25 |
| O=C(NC(Cc1c[nH]c2ccccc12)C(=O)Nc1ccc(OC(F)(F)F)cc1)c1cccs1 (stereo not drawn) | > 25 µM (inactive) | > 25 |
| COc1ccc(Nc2nc(-c3ccccc3)c3ccccc3n2)cc1 | 10.7 µM | > 25 |
| COCCNC(=S)N(CCc1c(C)[nH]c2ccc(Cl)cc12)Cc1cccs1 | 8.8 µM | > 25 |
| COc1ccc(S(=O)(=O)N2c3ccccc3OCC2C(C)(C)C)cc1 (stereo not drawn) | 18.5 µM | > 25 |
| COC(=O)CNC(c1ccccc1)c1cc(Cl)ccc1NC(=O)c1cccc(Cl)c1 (stereo not drawn) | 10.4 µM | > 25 |
| C/C(=N\NC(=S)NCc1ccccc1)c1ccc2ccccc2c1OC(F)F | 7.44 µM | 25 |
| CC(C)(C)c1ccc(CSc2nnc(-c3ccccn3)n2Cc2ccco2)cc1 | 17.6 µM | > 25 |
| Cc1cc(N=Cc2cc(Cl)ccc2O)no1 | > 25 µM (inactive) | > 25 |
| O=C(OCc1csc(Nc2ccccc2)n1)c1ccc(Cl)cc1 | 10.1 µM | 17.6 |
| O=C1COc2ccc(NC(=O)N3CCN(c4ccc(F)cc4)CC3)cc2N1 | > 25 µM (inactive) | > 25 |
| Cc1cccc(-n2c(CCc3ccccc3)nnc2SCC(=O)c2ccccc2)c1 | 20.6 µM | > 25 |
| Cc1[nH]c2ccc(F)cc2c1CCN(Cc1ccco1)C(=S)NC(C)(C)C | 12.5 µM | > 25 |
| O=C(c1cnc(-c2ccc(Cl)cc2)s1)c1ccc(Cl)cc1Cl | 14.6 µM | > 25 |
| COC(=O)C1=C(O)/C(=C\c2ccc(CNC(=O)C(=O)Nc3ccc(C)cc3)o2)N=C1C | > 25 µM (inactive) | > 25 |
| Cc1ccc(S(=O)(=O)c2nc(Nc3ccccc3)sc2Cl)cc1 | 14.1 µM | > 25 |
| CCN(Cc1ccccc1)C(c1cccs1)c1nnnn1C1CCCCC1 (stereo not drawn) | 8.92 µM | > 25 |

Further lines, results first:

| IC50 (WT cells) | IC50 [1] [µM] | SMILES |
| --- | --- | --- |
| 5.83 µM | > 25 | O=C(C1=C[C@@H](c2csc3ccccc23)C[C@@H](OCc2ccc(CO)cc2)O1)N1CCN(Cc2ccccc2)CC1 |
| 19.7 µM | > 25 | Cc1nc(N2CCC(C)CC2)c2c(C)c(C(=O)Nc3cc(F)ccc3C)sc2n1 |
| 11.5 µM | > 25 | CCOC1(OCC)C(c2ccc(Cl)cc2)C(C#N)(C#N)C1(OCC)OCC (stereo not drawn) |
| > 25 µM (inactive) | > 25 | O=[N+]([O-])c1ccccc1/C=N/n1c(C2CCCCC2)n[nH]c1=S |
| > 25 µM (inactive) | > 25 | CCOC(=O)c1c(C)[nH]c(C)c1C(=O)CSc1nnc(-c2ccncc2)n1C |
| 16.1 µM | > 25 | COc1ccccc1N(CC(O)COc1c(C)cc(C)cc1C)S(=O)(=O)c1ccccc1 (stereo not drawn) |
| 12.6 µM | > 25 | CCC[C@@H]1C[C@@]1(CCC)[C@@H](NP(=O)(c1ccccc1)c1ccccc1)c1ccc(C(=O)OC)cc1 |
| > 25 µM (inactive) | > 25 | CC(Oc1ccc(Cl)cc1Cl)C(=O)NCCCCc1ccccc1 (stereo not drawn) |
| 10.8 µM | > 25 | O=S(=O)(Nc1ccc(O)c(Sc2nc3ccccc3s2)c1)c1cccc2ccccc12 |
| > 25 µM (inactive) | > 25 | O=C(CCC1N=C2c3ccccc3N=C(SCc3cccc(Cl)c3)N2C1=O)NCc1ccco1 (stereo not drawn) |
| > 25 µM (inactive) | > 25 | Cc1cc(N/N=C/c2ccc(O)c(C)c2O)nc(-c2ccccc2O)n1 |
| 6.62 µM | > 25 | COC(=O)C1=C(Nc2ccc(C)cc2)C=C(C)C(C(=O)OC)C1c1ccc(F)cc1 (stereo not drawn) |
| > 25 µM (inactive) | > 25 | Cc1c(C)c2ccc(OC3CCCCC3=O)cc2oc1=O (stereo not drawn) |
| > 25 µM (inactive) | > 25 | CCOP(=O)(OCC)c1nc(/C=C/c2ccccc2)oc1NCc1ccccc1 |
| 22.3 µM | > 25 | Cc1ccc(NNC(=O)C(O)(c2cccc(C(F)(F)F)c2)c2cccc(C(F)(F)F)c2)cc1 |
| 9.75 µM | > 12.5 | Cc1ccccc1N1CCN(c2ncnc3scc(-c4cccs4)c23)CC1 |

| IC50 (WT cells) | IC50 [1] [µM] | SMILES |
| --- | --- | --- |
| 4.04 µM | > 25 | Cc1cccc2nc(-c3ccccc3)nc(N3CCC(O)(c4ccc(Cl)cc4)CC3)c12 |
| > 25 µM (inactive) | > 25 | CCOc1ccc(-n2c(SCC(=O)Nc3cc(C)on3)nnc2-c2c[nH]c3ccccc23)cc1 |
| 9.74 µM | 24.7 | CN1/C(=C\C(=O)Nc2cccc(Cl)c2)C(C)(C)c2ccccc21 |
| > 25 µM (inactive) | > 25 | CCOC(=O)c1c(C)[nH]c(C(=O)OCC(=O)Nc2cc(Cl)ccc2OC)c1C |
| > 25 µM (inactive) | > 25 | Cc1cc(C)c(OCC(=O)Nc2nnc(-c3ccco3)o2)c(C)c1 |
| > 25 µM (inactive) | > 25 | Cc1cc(C)c2nc(C(F)(F)F)nc(N3CC(C)OC(C)C3)c2c1 (stereo not drawn) |
| > 25 µM (inactive) | > 25 | Cc1nn(C(C)C(=O)NCC2CCCO2)c(=O)c2cc3occc3n12 (stereo not drawn) |
| > 25 µM (inactive) | > 25 | Cc1ccc2cc(CN(C(=O)c3ccco3)c3ccccc3C)c(=O)[nH]c2c1 |
| 17 µM | 21.5 | CCCCCCOC1(c2ccccc2)OC(=O)c2ccccc21 (stereo not drawn) |
| > 25 µM (inactive) | > 25 | O=C(N=Nc1c(O)n(Cc2ccccc2)c2ccccc12)c1cc2ccccc2cc1O |
| > 25 µM (inactive) | > 25 | Cn1cc(C(=O)c2ccc(Cl)cc2Cl)cc1C(=O)O |
| > 25 µM (inactive) | > 25 | Nc1ccc2nn(-c3ccccc3)nc2c1 |
| > 25 µM (inactive) | > 25 | O=c1ccccn1Cc1c(Cl)cccc1Cl |
| > 25 µM (inactive) | > 25 | N#CC1=C(N)SC(N)=C(C#N)C1c1c(Cl)cccc1Cl |
| > 25 µM (inactive) | > 25 | CCC(=O)N1CCN(c2ccccc2NC(=O)COc2cc(C)ccc2C(C)C)CC1 |
